Molecules are shown by their SMILES. Numbered stars: 1 amine (or outer) side, 2 acyl side, 3 side chain; on linkers, the order of the positions; unused ones are H or OH. Square brackets hold non-standard residues; d marks the D form. Peptide text beside a SMILES is read from it. * marks the point of attachment. DOTA = O=C(O)CN1CCN(CC(=O)O)CCN(CC(=O)*)CCN(CC(=O)O)CC1; Ala(9-anthryl) = N[C@@H](Cc1c2ccccc2cc2ccccc12)C(=O)O; Gly(N-(3-F-4-Me-benzyl)) = Cc1ccc(CNCC(=O)*)cc1F; Gly(Nα-4-MeO-benzyl) = COc1ccc(CNCC(=O)*)cc1; Api(1-amidino) = N=C(N)N1CCC(N)(C(=O)O)CC1; Bip = N[C@@H](Cc1ccc(-c2ccccc2)cc1)C(=O)O; Phe(4-I) = N[C@@H](Cc1ccc(I)cc1)C(=O)O; X1 = O=C(CN1CCC(N[*:1])CC1)[*:2]; dCya = N[C@H](CS(=O)(=O)O)C(=O)O; 4Pal = N[C@@H](Cc1ccncc1)C(=O)O; Cha = N[C@@H](CC1CCCCC1)C(=O)O; 4Amb = NCc1ccc(C(=O)O)cc1; Nle = CCCC[C@H](N)C(=O)O; Api = NC1(C(=O)O)CCNCC1; Ahx = NCCCCCC(=O)O; azaGly = NNC(=O)O

Chain of human kisspeptin receptor (Q969F8 whole entry): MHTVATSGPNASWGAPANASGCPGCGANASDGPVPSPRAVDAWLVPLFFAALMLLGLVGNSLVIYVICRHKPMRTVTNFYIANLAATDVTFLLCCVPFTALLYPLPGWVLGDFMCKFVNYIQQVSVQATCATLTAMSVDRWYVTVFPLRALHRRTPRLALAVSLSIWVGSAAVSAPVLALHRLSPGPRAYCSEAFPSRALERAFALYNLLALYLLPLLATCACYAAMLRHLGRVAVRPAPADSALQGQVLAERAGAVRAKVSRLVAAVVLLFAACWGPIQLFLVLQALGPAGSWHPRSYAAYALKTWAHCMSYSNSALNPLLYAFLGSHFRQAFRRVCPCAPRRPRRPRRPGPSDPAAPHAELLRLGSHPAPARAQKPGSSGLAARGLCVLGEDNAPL

This assay concerns the target human kisspeptin receptor (Homo sapiens (Human), UniProt Q969F8). The assay can be described thus: Human KISS1R binding assay (membrane competition binding). Particulars: 90 min at room temperature; competition with 0.2 nM [125I]-metastin (45-54); Flp-In T-Rex 293 kisspeptin membranes; metal complexes nonradioactive Ga, In, Lu; read-out: hKiSSR Binding Ki (90 min). In a few lines:
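Radioligand competition: 0.2 nM [125I]-metastin (45-54) displaced by test ligand (usually 0–10,000 nM) over 90 min at room temperature, pH 7.4 buffer with 0.1% BSA. Receptor source is crude membrane (5–10 μg) from tetracycline-induced Flp-In T-Rex 293 cells. Bound label filtered and counted; Ki from non-linear regression.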
`CC(C)C[C@H](NC(=O)NNC(=O)[C@H](Cc1ccc(I)cc1)NC(=O)[C@@H](NC(=O)[C@H](CC(N)=O)NC(=O)[C@H](Cc1ccc(I)cc1)NC(=O)[C@@H](Cc1ccc(O)cc1)NC(=O)CN1CCN(CC(=O)O)CCN(CC(=O)O)CCN(CC(=O)O)CC1)[C@@H](C)O)C(=O)NC1(C(=O)N[C@@H](Cc2ccncc2)C(N)=O)CCN(C(=N)N)CC1` [Compound 121] ({DOTA}-[dY][Phe(4-I)]NT[Phe(4-I)][azaGly]L[Api(1-amidino)][4Pal]-NH2): the Ki was 10 to 100 nM.
With `CCCC[C@H](NC(=O)NNC(=O)[C@H](Cc1ccccc1)NC(=O)[C@@H](NC(=O)[C@H](CC(N)=O)NC(=O)[C@H](Cc1c2ccccc2cc2ccccc12)NC(=O)[C@@H](Cc1ccc(O)cc1)NC(=O)CN1CCN(CC(=O)O)CCN(CC(=O)O)CCN(CC(=O)O)CC1)[C@@H](C)O)C(=O)NC1(C(=O)N[C@@H](Cc2ccncc2)C(N)=O)CCN(C(=N)N)CC1` [Compound 123] ({DOTA}-[dY][Ala(9-anthryl)]NTF[azaGly][Nle][Api(1-amidino)][4Pal]-NH2), the Ki was greater than 100 nM.
The same measure for `Cc1ccc(CNCC(=O)N2CCC(NC(=O)[C@H](CC(C)C)NC(=O)NNC(=O)[C@H](Cc3ccccc3)NC(=O)CCCCCNC(=O)[C@@H](CS(=O)(=O)O)NC(=O)[C@@H](CS(=O)(=O)O)NC(=O)CN3CCN(CC(=O)O)CCN(CC(=O)O)CCN(CC(=O)O)CC3)(C(=O)N[C@@H](Cc3c[nH]c4ccccc34)C(N)=O)CC2)cc1F` [Compound 130] ({DOTA}-[dCya][dCya][Ahx]F[azaGly]L[Api](Gly(N-(3-F-4-Me-benzyl)))W-NH2): less than 10 nM.
In the case of `Cc1ccc(CNCC(=O)N2CCC(NC(=O)[C@H](CC(C)C)NC(=O)NNC(=O)[C@H](Cc3ccccc3)NC(=O)CCCCCNC(=O)[C@@H](CS(=O)(=O)O)NC(=O)[C@@H](CS(=O)(=O)O)NC(=O)[C@@H](CS(=O)(=O)O)NC(=O)CN3CCN(CC(=O)O)CCN(CC(=O)O)CCN(CC(=O)O)CC3)(C(=O)N[C@@H](Cc3c[nH]c4ccccc34)C(N)=O)CC2)cc1F` [Compound 131] ({DOTA}-[dCya][dCya][dCya][Ahx]F[azaGly]L[Api](Gly(N-(3-F-4-Me-benzyl)))W-NH2), the Ki was less than 10 nM.
As to `Cc1ccc(CNCC(=O)N2CCC(NC(=O)c3cccc(OCCNC(=O)[C@H](Cc4ccccc4)NC(=O)CCCCCNC(=O)CN4CCN(CC(=O)O)CCN(CC(=O)O)CCN(CC(=O)O)CC4)c3)(C(=O)N[C@@H](Cc3c[nH]c4ccccc34)C(N)=O)CC2)cc1F` [Compound 134], the Ki was in the range of 10 to 100 nM.
For the compound `Cc1ccc(CNCC(=O)N2CCC(NC(=O)c3cccc(CNC(=O)[C@H](Cc4ccccc4)NC(=O)CCCCCNC(=O)CN4CCN(CC(=O)O)CCN(CC(=O)O)CCN(CC(=O)O)CC4)n3)(C(=O)N[C@@H](Cc3c[nH]c4ccccc34)C(N)=O)CC2)cc1F` [Compound 135], the Ki was greater than 100 nM.
To `Cc1ccc(CNCC(=O)N2CCC(NC(=O)c3ccnc(CNC(=O)[C@H](Cc4ccccc4)NC(=O)CCCCCNC(=O)CN4CCN(CC(=O)O)CCN(CC(=O)O)CCN(CC(=O)O)CC4)c3)(C(=O)N[C@@H](Cc3c[nH]c4ccccc34)C(N)=O)CC2)cc1F` [Compound 136] belongs greater than 100 nM; to `Cc1ccc(CNCC(=O)N2CCC(NC(=O)[C@@H](CC(C)C)SCCNC(=O)[C@H](Cc3ccccc3)NC(=O)CCCCCNC(=O)CN3CCN(CC(=O)O)CCN(CC(=O)O)CCN(CC(=O)O)CC3)(C(=O)N[C@@H](Cc3c[nH]c4ccccc34)C(N)=O)CC2)cc1F` [Compound 137], less than 10 nM.
Turning to `Cc1ccc(CNCC(=O)N2CCC(NC(=O)[C@H](CC(C)C)SC(C)(C)CNC(=O)[C@H](Cc3ccccc3)NC(=O)CCCCCNC(=O)CN3CCN(CC(=O)O)CCN(CC(=O)O)CCN(CC(=O)O)CC3)(C(=O)N[C@@H](Cc3c[nH]c4ccccc34)C(N)=O)CC2)cc1F` [Compound 138], the inhibition constant Ki was in the range of 10 to 100 nM.
`Cc1ccc(CNCC(=O)N2CCC(NC(=O)[C@H](CC(C)C)N3CC(NC(=O)[C@H](Cc4ccccc4)NC(=O)CCCCCNC(=O)CN4CCN(CC(=O)O)CCN(CC(=O)O)CCN(CC(=O)O)CC4)C3)(C(=O)N[C@@H](Cc3c[nH]c4ccccc34)C(N)=O)CC2)cc1F` [Compound 139]: the Ki was 10 to 100 nM.
To `COc1ccc(CNCC(=O)N2CCC(NC(=O)[C@H](CC(C)C)NC(=O)NNC(=O)[C@H](Cc3ccccc3)NC(=O)[C@@H](NC(=O)[C@H](CC(N)=O)NC(=O)[C@@H](Cc3c[nH]c4ccccc34)NC(=O)[C@@H](Cc3ccc(O)cc3)NC(=O)CCCCCNC(=O)CN3CCN(CC(=O)O)CCN(CC(=O)O)CCN(CC(=O)O)CC3)[C@@H](C)O)(C(=O)N[C@@H](Cc3ccccc3)C(N)=O)CC2)cc1` [Compound 140] ({DOTA-Ahx}-[dY][dW]NTF[azaGly]L[Api](Gly(Nα-4-MeO-benzyl))F-NH2) belongs less than 10 nM; to `Cc1ccc(CNCC(=O)N2CCC(NC(=O)[C@H](CC(C)C)NC(=O)NNC(=O)[C@H](Cc3ccccc3)NC(=O)CCCCCNC(=O)CN3CCN(CC(=O)O)CCN(CC(=O)O)CCN(CC(=O)O)CC3)(C(=O)N[C@@H](CC3CCCCC3)C(N)=O)CC2)cc1F` [Compound 141] ({DOTA-Ahx}-F[azaGly]L[Api](Gly(N-(3-F-4-Me-benzyl)))[Cha]-NH2), 10 to 100 nM.
The same measure for `Cc1ccc(CNCC(=O)N2CCC(NC(=O)[C@H](CC(C)C)NC(=O)NNC(=O)[C@H](Cc3ccc(-c4ccccc4)cc3)NC(=O)CN3CCC(NC(=O)CN4CCN(CC(=O)O)CCN(CC(=O)O)CCN(CC(=O)O)CC4)CC3)(C(=O)N[C@@H](Cc3c[nH]c4ccccc34)C(N)=O)CC2)cc1F` [Compound 142] ({DOTA}-[X1][Bip][azaGly]L[Api](Gly(N-(3-F-4-Me-benzyl)))W-NH2): less than 10 nM; for `Cc1ccc(CNCC(=O)N2CCC(NC(=O)[C@H](CC(C)C)NC(=O)NNC(=O)[C@H](Cc3ccccc3)NC(=O)c3ccc(CNC(=O)[C@@H](CS(=O)(=O)O)NC(=O)[C@@H](CS(=O)(=O)O)NC(=O)CN4CCN(CC(=O)O)CCN(CC(=O)O)CCN(CC(=O)O)CC4)cc3)(C(=O)N[C@@H](Cc3c[nH]c4ccccc34)C(N)=O)CC2)cc1F` [Compound 146] ({DOTA}-[dCya][dCya][4Amb]F[azaGly]L[Api](Gly(N-(3-F-4-Me-benzyl)))W-NH2): less than 10 nM; for `Cc1ccc(CNCC(=O)N2CCC(NC(=O)[C@H](CC(C)C)N[C@H](CNC(=O)[C@H](Cc3ccccc3)NC(=O)CCCCCNC(=O)CN3CCN(CC(=O)O)CCN(CC(=O)O)CCN(CC(=O)O)CC3)C(F)(F)F)(C(=O)N[C@@H](Cc3c[nH]c4ccccc34)C(N)=O)CC2)cc1F` [Compound 147]: greater than 100 nM.
`Cc1ccc(CNCC(=O)N2CCC(NC(=O)[C@H](CC(C)C)N[C@@H](CNC(=O)[C@H](Cc3ccccc3)NC(=O)CCCCCNC(=O)CN3CCN(CC(=O)O)CCN(CC(=O)O)CCN(CC(=O)O)CC3)C(F)(F)F)(C(=O)N[C@@H](Cc3c[nH]c4ccccc34)C(N)=O)CC2)cc1F` [Compound 148]: the Ki fell in the range of 10 to 100 nM.
To `Cc1ccc(CNCC(=O)N2CCC(NC(=O)[C@H](CC(C)C)NC(=O)NNC(=O)[C@H](Cc3ccccc3)NC(=O)[C@@H](NC(=O)[C@H](CC(N)=O)NC(=O)[C@@H](Cc3c[nH]c4ccccc34)NC(=O)[C@@H](Cc3ccc(O)cc3)NC(=O)CCCCCNC(=O)[C@H](Cc3ccc(O)cc3)NC(=O)CNC(=O)c3ccc(CNC(=O)CN4CCN(CC(=O)O)CCN(CC(=O)O)CCN(CC(=O)O)CC4)cc3)[C@@H](C)O)(C(=O)N[C@@H](Cc3c[nH]c4ccccc34)C(N)=O)CC2)cc1F` [Compound 149] ({DOTA-4Amb}-GY[Ahx][dY][dW]NTF[azaGly]L[Api](Gly(N-(3-F-4-Me-benzyl)))W-NH2) belongs less than 10 nM.

The term Ki denotes the dissociation constant of the complex between target and ligand, obtained from inhibition or displacement.

These data come from patent US20250312499A1, “KISSPEPTIN RECEPTOR (KISS1R) TARGETED THERAPEUTICS AND USES THEREOF” (priority 2024, published 2025).
